Measured values reported in ChEMBL document CHEMBL1201862, “PubChem BioAssay data set” (2004).
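A five-concentration, 48-hour dose response in 96-well plates underlies each endpoint, interpolated linearly between surrounding concentrations. GI50: concentration for 50% inhibition of growth.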 Calls of active or inactive are those of the source. Cut-off read from the data, not from the text of the source: active = GI50 up to about 1.1 µM and inactive = higher.

Assays:
Assay in all cases: growth of human tumour cells (NCI), 48 h
[1] = system: 786-0
[2] = system: A549
[3] = system: ACHN
[4] = system: COLO 205
[5] = system: EKVX
[6] = system: HCC 2998
[7] = system: Hs-578T
[8] = system: M14
[9] = system: MDA-MB-231
[10] = system: MDA-MB-435
[11] = system: MOLT-4
[12] = system: NCI-H460
[13] = system: OVCAR-4
[14] = system: PC-3
[15] = system: RXF 393
[16] = system: SN12C
[17] = system: TK-10
[18] = system: UACC-257
[19] = system: SF-539

Structure (SMILES) | GI50 [1] | GI50 [2] | GI50 [3] | GI50 [4] | GI50 [5] | GI50 [6] | GI50 [7] | GI50 [8] | GI50 [9] | GI50 [10] | GI50 [11] | GI50 [12] | GI50 [13] | GI50 [14] | GI50 [15] | GI50 [16] | GI50 [17] | GI50 [18] | GI50 [19]
[O-][S+](c1ccc(Cl)cc1)c1ccccc1C1=NCCN1 (stereo not given) | > 100 µM (inactive) | > 100 µM (inactive) | > 100 µM (inactive) | > 100 µM (inactive) | > 100 µM (inactive) | > 100 µM (inactive) | > 100 µM (inactive) | > 100 µM (inactive) | > 100 µM (inactive) | > 100 µM (inactive) | > 100 µM (inactive) | > 100 µM (inactive) | > 100 µM (inactive) | > 100 µM (inactive) | > 100 µM (inactive) | > 100 µM (inactive) | > 100 µM (inactive) | > 100 µM (inactive) | –
N#Cc1ccc(OC(=O)c2ccc(NC(=N)N)cc2)cc1.c1ccncc1 | 66.1 µM (inactive) | > 100 µM (inactive) | > 100 µM (inactive) | 39.1 µM (inactive) | > 100 µM (inactive) | – | > 100 µM (inactive) | > 100 µM (inactive) | > 100 µM (inactive) | 67.8 µM (inactive) | 38.5 µM (inactive) | > 100 µM (inactive) | > 100 µM (inactive) | > 100 µM (inactive) | > 100 µM (inactive) | 63.2 µM (inactive) | > 100 µM (inactive) | > 100 µM (inactive) | 73.6 µM (inactive)
c1ccc(CCNc2ccccn2)nc1 | > 100 µM (inactive) | > 100 µM (inactive) | > 100 µM (inactive) | > 100 µM (inactive) | > 100 µM (inactive) | > 100 µM (inactive) | > 100 µM (inactive) | > 100 µM (inactive) | > 100 µM (inactive) | > 100 µM (inactive) | – | > 100 µM (inactive) | > 100 µM (inactive) | > 100 µM (inactive) | > 100 µM (inactive) | > 100 µM (inactive) | > 100 µM (inactive) | > 100 µM (inactive) | –
CCOC(=O)c1ccc(C(=O)C(C(C)=O)C(=O)OC(C)(C)C)n1C (stereo not given) | > 100 µM (inactive) | > 100 µM (inactive) | > 100 µM (inactive) | > 100 µM (inactive) | > 100 µM (inactive) | > 100 µM (inactive) | > 100 µM (inactive) | > 100 µM (inactive) | > 100 µM (inactive) | > 100 µM (inactive) | 67.5 µM (inactive) | > 100 µM (inactive) | > 100 µM (inactive) | > 100 µM (inactive) | > 100 µM (inactive) | > 100 µM (inactive) | > 100 µM (inactive) | > 100 µM (inactive) | –
C/C(=N/O)c1cccc(Nc2nc3ccc(Cl)cc3c3[nH]c4ccccc4c23)c1 | 1.36 µM (inactive) | 1.6 µM (inactive) | 0.929 µM (active) | 1.77 µM (inactive) | – | – | 2.65 µM (inactive) | 1.82 µM (inactive) | 2.59 µM (inactive) | 1.81 µM (inactive) | 0.242 µM (active) | 1.14 µM (inactive) | 1.9 µM (inactive) | 1.79 µM (inactive) | 1.67 µM (inactive) | 2.51 µM (inactive) | 2.32 µM (inactive) | 3.53 µM (inactive) | 3.33 µM (inactive)
Cc1cc2c(=O)[nH]nc(N)c2c(N)n1 | > 100 µM (inactive) | > 100 µM (inactive) | > 100 µM (inactive) | > 100 µM (inactive) | > 100 µM (inactive) | > 100 µM (inactive) | > 100 µM (inactive) | > 100 µM (inactive) | > 100 µM (inactive) | > 100 µM (inactive) | > 100 µM (inactive) | > 100 µM (inactive) | > 100 µM (inactive) | > 100 µM (inactive) | > 100 µM (inactive) | > 100 µM (inactive) | > 100 µM (inactive) | > 100 µM (inactive) | –
O=C1c2ccccc2C(=O)N1CCSCC(CO)SCCN1C(=O)c2ccccc2C1=O (stereo not given) | > 100 µM (inactive) | > 100 µM (inactive) | > 100 µM (inactive) | > 100 µM (inactive) | 91 µM (inactive) | > 100 µM (inactive) | > 100 µM (inactive) | 96.8 µM (inactive) | > 100 µM (inactive) | > 100 µM (inactive) | 74 µM (inactive) | > 100 µM (inactive) | 48.6 µM (inactive) | > 100 µM (inactive) | > 100 µM (inactive) | > 100 µM (inactive) | > 100 µM (inactive) | > 100 µM (inactive) | –
CCOC(=O)c1ccc2c(c1)Cc1cc([N+](=O)[O-])ccc1-2 | 86.5 µM (inactive) | 33.7 µM (inactive) | 29.9 µM (inactive) | 23.2 µM (inactive) | 12.3 µM (inactive) | – | 48.9 µM (inactive) | 97.1 µM (inactive) | 32.3 µM (inactive) | 43.1 µM (inactive) | 20.1 µM (inactive) | 50.9 µM (inactive) | 15.7 µM (inactive) | 61.9 µM (inactive) | 22.9 µM (inactive) | 89.3 µM (inactive) | 24.4 µM (inactive) | 48.1 µM (inactive) | 36.1 µM (inactive)
COC(=O)Nc1nc2cc(S(=O)(=O)n3nnc4ccccc43)ccc2[nH]1 | 40.2 µM (inactive) | > 100 µM (inactive) | 59.4 µM (inactive) | > 100 µM (inactive) | > 100 µM (inactive) | – | 21.3 µM (inactive) | > 100 µM (inactive) | 43.5 µM (inactive) | > 100 µM (inactive) | > 100 µM (inactive) | > 100 µM (inactive) | > 100 µM (inactive) | 35 µM (inactive) | 14.6 µM (inactive) | > 100 µM (inactive) | – | 5.61 µM (inactive) | 10.2 µM (inactive)
O=C(Nc1ccccc1C(=O)O)C(=Cc1ccccc1O)NC(=O)c1ccccc1 | > 100 µM (inactive) | > 100 µM (inactive) | > 100 µM (inactive) | > 100 µM (inactive) | > 100 µM (inactive) | > 100 µM (inactive) | > 100 µM (inactive) | > 100 µM (inactive) | > 100 µM (inactive) | 32.4 µM (inactive) | > 100 µM (inactive) | > 100 µM (inactive) | – | > 100 µM (inactive) | > 100 µM (inactive) | > 100 µM (inactive) | – | > 100 µM (inactive) | 58.6 µM (inactive)
COc1ccc(C(=O)/C=C/c2ccncc2)cc1OC | 11.4 µM (inactive) | 15.7 µM (inactive) | 14.9 µM (inactive) | 15.5 µM (inactive) | 16.7 µM (inactive) | – | 13.7 µM (inactive) | 14.7 µM (inactive) | 12 µM (inactive) | 14.8 µM (inactive) | 8.32 µM (inactive) | – | 11 µM (inactive) | 16.7 µM (inactive) | 12.6 µM (inactive) | 15.8 µM (inactive) | 16.4 µM (inactive) | 12.9 µM (inactive) | 10.3 µM (inactive)
COCN1C(=O)[C@@H]2CCCN2C(=O)c2cc(OC)c(Cc3ccccc3)cc21 | > 100 µM (inactive) | 83.6 µM (inactive) | > 100 µM (inactive) | – | > 100 µM (inactive) | – | > 100 µM (inactive) | > 100 µM (inactive) | 49.5 µM (inactive) | 70.1 µM (inactive) | – | – | 43.7 µM (inactive) | 74.5 µM (inactive) | 34.3 µM (inactive) | > 100 µM (inactive) | > 100 µM (inactive) | > 100 µM (inactive) | > 100 µM (inactive)
O=C1N[C@@H]2c3c(csc3Br)C(=O)[C@@H]2O1 | 33.2 µM (inactive) | 51.9 µM (inactive) | 37.2 µM (inactive) | 35 µM (inactive) | 30.4 µM (inactive) | 17.9 µM (inactive) | 31 µM (inactive) | 37.3 µM (inactive) | 43.7 µM (inactive) | 19.9 µM (inactive) | 19.9 µM (inactive) | 43.4 µM (inactive) | – | 41.6 µM (inactive) | 15.5 µM (inactive) | 42.5 µM (inactive) | 27.4 µM (inactive) | 22.4 µM (inactive) | 33.5 µM (inactive)
COC(=O)c1c2c(cc3c1CCC3)CCC2 | 80.7 µM (inactive) | 61.2 µM (inactive) | > 100 µM (inactive) | 96.2 µM (inactive) | 39.6 µM (inactive) | 59.4 µM (inactive) | 35.8 µM (inactive) | > 100 µM (inactive) | 37.7 µM (inactive) | 70.8 µM (inactive) | 21.6 µM (inactive) | 94.6 µM (inactive) | 82.2 µM (inactive) | 44.7 µM (inactive) | – | > 100 µM (inactive) | 57.4 µM (inactive) | 48 µM (inactive) | 92.7 µM (inactive)
C/C=C1\C(=O)OC2CCN3CCC(COC(=O)C(C)(O)C(C)C1O)C23 (stereo not given) | > 100 µM (inactive) | > 100 µM (inactive) | > 100 µM (inactive) | > 100 µM (inactive) | > 100 µM (inactive) | > 100 µM (inactive) | > 100 µM (inactive) | > 100 µM (inactive) | > 100 µM (inactive) | > 100 µM (inactive) | > 100 µM (inactive) | > 100 µM (inactive) | > 100 µM (inactive) | > 100 µM (inactive) | – | > 100 µM (inactive) | > 100 µM (inactive) | > 100 µM (inactive) | > 100 µM (inactive)
COc1cc(O)c(C(=O)/C=C/c2ccc(O)cc2)cc1Oc1ccc(C(=O)/C=C/c2ccc(O)cc2)c(O)c1 [RHUSCHALCONE IV] | 2.23 µM (inactive) | 2.96 µM (inactive) | 2.4 µM (inactive) | 1.88 µM (inactive) | 2.27 µM (inactive) | – | 6.52 µM (inactive) | 3.9 µM (inactive) | 3.6 µM (inactive) | 3.4 µM (inactive) | 3.13 µM (inactive) | 2.88 µM (inactive) | 2.22 µM (inactive) | 3.78 µM (inactive) | 2.48 µM (inactive) | 2.45 µM (inactive) | 3.42 µM (inactive) | 6.19 µM (inactive) | 2.37 µM (inactive)
